In US20090304692A1, “TRIAZINE COMPOUNDS AS PI3 KINASE AND MTOR INHIBITORS” (Wyeth, priority 2008, published 2009):
Read-outs that look alike come from different tables or passages of the source.

Assays:
[1] = tested on: human breast MDA-MB-361 tumor cell line; assay: In vitro cell culture growth assay (MTS), MDA-MB-361; assay type: cell-based; conditions: Homo sapiens, MTS cell growth assay, three days after drug treatment, MDA-MB-361 cells, read-out: IC50 MDA-MB-361
PI3K-α = PI3K-α (Homo sapiens, UniProt P42336); assay: PI3K-alpha fluorescence polarization assay; conditions: read-out: IC50 PI3Kα
Human mTOR (FLAG-TOR) = Human mTOR (FLAG-TOR) (Homo sapiens, UniProt P42345); assay: mTOR kinase assay (DELFIA format, purified enzyme); assay type: biochemical; conditions: read-out: IC50 mTOR
[2] = tested on: human prostate PC3-mm2 tumor cell line; assay: In vitro cell culture growth assay (MTS), PC3-mm2; assay type: cell-based; conditions: Homo sapiens, PC3MM2, 72 h, MTS cell growth assay, three days after drug treatment, PC3-mm2 cells; read-out: IC50 PC3-mm2
PI3K-γ = PI3K-γ (Homo sapiens, UniProt P48736); assay: PI3K-gamma fluorescence polarization assay; conditions: read-out: IC50 PI3Kγ
PI3K-γ, sequence (P48736 whole entry, species assumed): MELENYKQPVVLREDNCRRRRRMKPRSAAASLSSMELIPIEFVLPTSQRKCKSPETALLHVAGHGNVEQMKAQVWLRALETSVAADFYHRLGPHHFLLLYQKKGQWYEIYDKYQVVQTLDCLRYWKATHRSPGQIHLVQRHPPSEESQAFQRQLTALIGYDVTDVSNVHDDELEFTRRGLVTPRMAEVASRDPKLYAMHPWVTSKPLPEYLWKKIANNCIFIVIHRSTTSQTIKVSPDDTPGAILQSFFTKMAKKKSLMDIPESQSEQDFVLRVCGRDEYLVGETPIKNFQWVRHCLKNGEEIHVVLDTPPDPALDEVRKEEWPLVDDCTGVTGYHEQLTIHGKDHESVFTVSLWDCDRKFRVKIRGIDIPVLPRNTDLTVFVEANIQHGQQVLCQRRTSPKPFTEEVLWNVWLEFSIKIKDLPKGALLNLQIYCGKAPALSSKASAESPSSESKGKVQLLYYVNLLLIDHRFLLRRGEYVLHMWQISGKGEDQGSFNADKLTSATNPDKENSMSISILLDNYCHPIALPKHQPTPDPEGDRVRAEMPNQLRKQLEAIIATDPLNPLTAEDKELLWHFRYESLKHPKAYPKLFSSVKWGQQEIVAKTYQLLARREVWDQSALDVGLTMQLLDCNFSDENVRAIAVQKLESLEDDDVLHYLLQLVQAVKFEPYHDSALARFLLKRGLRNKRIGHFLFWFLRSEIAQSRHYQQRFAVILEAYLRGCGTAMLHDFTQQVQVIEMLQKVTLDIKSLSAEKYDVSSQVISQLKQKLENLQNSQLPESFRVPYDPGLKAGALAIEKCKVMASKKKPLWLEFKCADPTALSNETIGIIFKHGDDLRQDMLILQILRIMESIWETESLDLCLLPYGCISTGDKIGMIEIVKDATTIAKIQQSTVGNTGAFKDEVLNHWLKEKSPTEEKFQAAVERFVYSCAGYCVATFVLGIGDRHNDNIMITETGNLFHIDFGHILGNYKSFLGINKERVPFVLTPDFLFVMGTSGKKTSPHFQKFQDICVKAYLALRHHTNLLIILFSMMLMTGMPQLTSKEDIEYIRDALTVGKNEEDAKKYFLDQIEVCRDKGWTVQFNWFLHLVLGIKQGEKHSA

Human mTOR (FLAG-TOR), sequence (P42345 1360-2549 limits assumed): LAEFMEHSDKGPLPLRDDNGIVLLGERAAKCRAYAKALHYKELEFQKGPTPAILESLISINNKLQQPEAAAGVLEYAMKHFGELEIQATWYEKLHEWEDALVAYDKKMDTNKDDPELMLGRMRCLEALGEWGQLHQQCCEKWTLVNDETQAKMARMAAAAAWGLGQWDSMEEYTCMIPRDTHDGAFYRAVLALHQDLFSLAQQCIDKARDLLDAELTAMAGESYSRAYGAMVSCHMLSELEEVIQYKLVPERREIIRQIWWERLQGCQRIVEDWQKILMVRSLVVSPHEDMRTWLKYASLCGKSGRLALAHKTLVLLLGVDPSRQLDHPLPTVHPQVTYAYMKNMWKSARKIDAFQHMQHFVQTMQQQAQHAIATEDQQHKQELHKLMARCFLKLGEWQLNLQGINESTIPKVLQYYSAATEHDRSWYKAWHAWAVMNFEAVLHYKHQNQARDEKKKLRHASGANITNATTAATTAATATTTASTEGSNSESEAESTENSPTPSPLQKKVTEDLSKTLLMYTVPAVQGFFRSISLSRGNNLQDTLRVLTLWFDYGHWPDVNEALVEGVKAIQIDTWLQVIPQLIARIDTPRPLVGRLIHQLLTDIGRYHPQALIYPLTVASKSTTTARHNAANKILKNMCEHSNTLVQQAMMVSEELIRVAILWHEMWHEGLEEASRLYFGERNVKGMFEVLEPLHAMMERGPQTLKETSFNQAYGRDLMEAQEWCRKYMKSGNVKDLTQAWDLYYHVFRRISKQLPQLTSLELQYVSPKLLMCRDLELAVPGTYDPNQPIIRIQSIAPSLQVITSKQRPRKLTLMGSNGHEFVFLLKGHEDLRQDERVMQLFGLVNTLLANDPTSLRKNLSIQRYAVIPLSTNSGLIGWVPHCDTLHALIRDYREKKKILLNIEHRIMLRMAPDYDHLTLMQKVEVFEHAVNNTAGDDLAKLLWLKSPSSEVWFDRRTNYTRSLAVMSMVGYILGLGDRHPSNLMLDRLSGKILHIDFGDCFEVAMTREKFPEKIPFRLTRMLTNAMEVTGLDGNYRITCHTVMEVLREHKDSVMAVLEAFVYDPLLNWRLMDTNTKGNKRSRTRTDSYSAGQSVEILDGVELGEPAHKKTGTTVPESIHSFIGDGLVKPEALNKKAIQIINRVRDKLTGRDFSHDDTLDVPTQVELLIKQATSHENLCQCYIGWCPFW
PI3K-α, sequence (P42336 whole entry, species assumed): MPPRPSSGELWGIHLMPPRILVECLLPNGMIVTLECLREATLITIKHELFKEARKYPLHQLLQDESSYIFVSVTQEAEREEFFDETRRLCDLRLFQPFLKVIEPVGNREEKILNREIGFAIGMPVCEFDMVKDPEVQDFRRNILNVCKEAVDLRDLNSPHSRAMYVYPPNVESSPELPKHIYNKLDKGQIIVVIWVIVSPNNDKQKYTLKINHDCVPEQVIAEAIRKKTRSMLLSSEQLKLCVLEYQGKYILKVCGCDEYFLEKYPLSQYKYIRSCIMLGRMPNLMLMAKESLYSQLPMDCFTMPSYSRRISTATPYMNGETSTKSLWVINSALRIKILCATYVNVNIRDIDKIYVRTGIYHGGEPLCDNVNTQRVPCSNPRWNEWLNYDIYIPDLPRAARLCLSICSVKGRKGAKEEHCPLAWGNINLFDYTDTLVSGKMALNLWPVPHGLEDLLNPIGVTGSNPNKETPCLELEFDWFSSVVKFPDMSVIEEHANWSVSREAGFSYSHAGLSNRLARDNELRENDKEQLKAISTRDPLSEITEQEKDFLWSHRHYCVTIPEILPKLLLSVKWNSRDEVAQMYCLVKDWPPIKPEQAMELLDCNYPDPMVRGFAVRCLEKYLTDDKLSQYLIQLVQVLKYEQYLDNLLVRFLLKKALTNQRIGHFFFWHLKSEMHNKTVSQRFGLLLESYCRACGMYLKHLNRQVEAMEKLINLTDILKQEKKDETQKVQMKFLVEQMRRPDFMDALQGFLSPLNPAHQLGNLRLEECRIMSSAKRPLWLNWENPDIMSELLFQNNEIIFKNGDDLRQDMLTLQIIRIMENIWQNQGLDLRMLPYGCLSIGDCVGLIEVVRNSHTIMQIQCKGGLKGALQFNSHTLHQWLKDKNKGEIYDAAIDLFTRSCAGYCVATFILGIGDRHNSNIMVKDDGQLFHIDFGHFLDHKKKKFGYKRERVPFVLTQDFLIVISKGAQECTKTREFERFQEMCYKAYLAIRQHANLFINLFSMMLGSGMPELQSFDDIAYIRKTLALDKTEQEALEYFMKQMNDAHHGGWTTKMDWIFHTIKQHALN
PI3K-α, sequence (P27986 whole entry partner, species assumed): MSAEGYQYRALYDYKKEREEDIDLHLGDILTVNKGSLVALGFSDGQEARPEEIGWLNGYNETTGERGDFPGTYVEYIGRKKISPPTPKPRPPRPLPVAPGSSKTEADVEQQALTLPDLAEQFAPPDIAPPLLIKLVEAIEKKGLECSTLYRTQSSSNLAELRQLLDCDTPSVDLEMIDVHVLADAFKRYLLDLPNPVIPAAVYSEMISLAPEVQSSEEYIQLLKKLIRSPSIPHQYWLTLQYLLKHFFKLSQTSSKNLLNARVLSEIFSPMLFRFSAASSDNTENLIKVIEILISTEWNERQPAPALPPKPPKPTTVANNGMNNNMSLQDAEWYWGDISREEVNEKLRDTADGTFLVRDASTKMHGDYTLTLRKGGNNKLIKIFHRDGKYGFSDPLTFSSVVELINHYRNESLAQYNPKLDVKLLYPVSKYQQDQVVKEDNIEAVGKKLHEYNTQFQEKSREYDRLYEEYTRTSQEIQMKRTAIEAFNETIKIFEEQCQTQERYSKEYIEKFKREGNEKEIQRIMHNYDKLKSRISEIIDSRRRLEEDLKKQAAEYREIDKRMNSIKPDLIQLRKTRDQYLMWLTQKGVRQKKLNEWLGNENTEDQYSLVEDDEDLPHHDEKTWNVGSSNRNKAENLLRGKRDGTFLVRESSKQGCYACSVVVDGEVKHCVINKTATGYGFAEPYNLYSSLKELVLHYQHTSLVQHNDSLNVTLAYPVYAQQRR

| IC50 ([1]; 72 h) [nM] | IC50 (PI3K-α) [nM] | IC50 (Human mTOR (FLAG-TOR)) [nM] | IC50 [2] [nM] | IC50 (PI3K-γ) [nM] | IC50 ([1]; MDA-MB-361, 72 h) [nM] | Structure (SMILES) |
| --- | --- | --- | --- | --- | --- | --- |
| 30 | 4 | 10.9 | 219 | 17 |  | CN(C)CCNC(=O)c1ccc(NC(=O)Nc2ccc(-c3nc(-c4ccccc4)nc(N4CCOCC4)n3)cc2)cc1 [Example 545, N-[2-(dimethylamino)ethyl]-4-({[4-(4-morpholin-4-yl-6-phenyl-1,3,5-triazin-2-yl)phenyl]carbamoyl}amino)benzamide] |
| 7 | 3.5 | 0.225 | 25 | 73.5 |  | C[C@H]1COCCN1c1nc(-c2ccc(NC(=O)Nc3ccc(C(=O)NCCN(C)C)cc3)cc2)nc(N2CCOC[C@@H]2C)n1 [Example 546, 4-{[(4-{4,6-bis[(3S)-3-methylmorpholin-4-yl]-1,3,5-triazin-2-yl}phenyl)carbamoyl]amino}-N-[2-(dimethylamino)ethyl]benzamide] |
|  | 11 | 7.75 | 197 | 70 | 68 | Cc1ccc(-c2nc(-c3ccc(NC(=O)Nc4ccc(C(=O)N5CCN(C(C)C)CC5)cc4)cc3)nc(N3CCOCC3)n2)cc1 [Example 547, 1-{4-[(4-isopropylpiperazin-1-yl)carbonyl]phenyl}-3-{4-[4-(4-methylphenyl)-6-morpholin-4-yl-1,3,5-triazin-2-yl]phenyl}urea] |
| 524 | 40 | 9.75 | 869 | 387 |  | Cc1ccc(-c2nc(-c3ccc(NC(=O)Nc4ccc(C(=O)NCCN5CCCC5)cc4)cc3)nc(N3CCOCC3)n2)cc1 [Example 548, 4-[({4-[4-(4-methylphenyl)-6-morpholin-4-yl-1,3,5-triazin-2-yl]phenyl}carbamoyl)amino]-N-(2-pyrrolidin-1-ylethyl)benzamide] |
| 315 | 47 | 12.4 | 711 | 374 |  | COCCNC(=O)c1ccc(NC(=O)Nc2ccc(-c3nc(-c4ccc(C)cc4)nc(N4CCOCC4)n3)cc2)cc1 [Example 550, N-(2-methoxyethyl)-4-[({4-[4-(4-methylphenyl)-6-morpholin-4-yl-1,3,5-triazin-2-yl]phenyl}carbamoyl)amino]benzamide] |
| 106 | 24 | 10 | 270 | 118 |  | COCCNC(=O)c1ccc(NC(=O)Nc2ccc(-c3nc(-c4ccccc4)nc(N4CCOCC4)n3)cc2)cc1 [Example 551, N-(2-methoxyethyl)-4-({[4-(4-morpholin-4-yl-6-phenyl-1,3,5-triazin-2-yl)phenyl]carbamoyl}amino)benzamide] |
| 105 | 11.5 | 3.55 | 243 | 127 |  | O=C(Nc1ccc(C(=O)NCCN2CCCC2)cc1)Nc1ccc(-c2nc(-c3ccccc3)nc(N3CCOCC3)n2)cc1 [Example 552, 4-({[4-(4-morpholin-4-yl-6-phenyl-1,3,5-triazin-2-yl)phenyl]carbamoyl}amino)-N-(2-pyrrolidin-1-ylethyl)benzamide] |
| 521 | 15 | 11.9 | > 1000 | 156 |  | Cc1ccc(-c2nc(-c3ccc(NC(=O)Nc4ccc(C(=O)NCCCN(C)C)cc4)cc3)nc(N3CCOCC3)n2)cc1 [Example 554, N-[3-(dimethylamino)propyl]-4-[({4-[4-(4-methylphenyl)-6-morpholin-4-yl-1,3,5-triazin-2-yl]phenyl}carbamoyl)amino]benzamide] |
| 128 | 8.5 | 4.4 | 379 | 54 |  | CN(C)CCCNC(=O)c1ccc(NC(=O)Nc2ccc(-c3nc(-c4ccccc4)nc(N4CCOCC4)n3)cc2)cc1 [Example 556, N-[3-(dimethylamino)propyl]-4-({[4-(4-morpholin-4-yl-6-phenyl-1,3,5-triazin-2-yl)phenyl]carbamoyl}amino)benzamide] |
| 34 | 18 | 8.55 | 31 | 64 |  | O=C(Nc1ccncc1)Nc1ccc(-c2nc(-c3cccs3)nc(N3CCOCC3)n2)cc1 [Example 557, 1-{4-[4-morpholin-4-yl-6-(2-thienyl)-1,3,5-triazin-2-yl]phenyl}-3-pyridin-4-ylurea] |
| 751 | 17 | 6.1 | 939 | 41 |  | O=C(Nc1ccc(C(=O)O)cc1)Nc1ccc(-c2nc(-c3cccs3)nc(N3CCOCC3)n2)cc1 [Example 558, 4-[({4-[4-morpholin-4-yl-6-(2-thienyl)-1,3,5-triazin-2-yl]phenyl}carbamoyl)amino]benzoic acid] |
|  | 2 | 10.1 | 149 | 13.5 | 8 | CN1CCN(C(=O)c2ccc(NC(=O)Nc3ccc(-c4nc(-c5cccs5)nc(N5CCOCC5)n4)cc3)cc2)CC1 [Example 559, 1-{4-[(4-methylpiperazin-1-yl)carbonyl]phenyl}-3-{4-[4-morpholin-4-yl-6-(2-thienyl)-1,3,5-triazin-2-yl]phenyl}urea] |
| 66 | 11.5 | 6 | 218 | 59 |  | COCCNC(=O)c1ccc(NC(=O)Nc2ccc(-c3nc(-c4cccs4)nc(N4CCOCC4)n3)cc2)cc1 [Example 561, N-(2-methoxyethyl)-4-[({4-[4-morpholin-4-yl-6-(2-thienyl)-1,3,5-triazin-2-yl]phenyl}carbamoyl)amino]benzamide] |
| 3 | 1 | 4 | 93 | 10.5 |  | CN(C)CCN(C)C(=O)c1ccc(NC(=O)Nc2ccc(-c3nc(-c4cccs4)nc(N4CCOCC4)n3)cc2)cc1 [Example 562, N-[2-(dimethylamino)ethyl]-N-methyl-4-[({4-[4-morpholin-4-yl-6-(2-thienyl)-1,3,5-triazin-2-yl]phenyl}carbamoyl)amino]benzamide] |
| 10 | 2.5 | 3 | 171 | 33.5 |  | CN(C)CCNC(=O)c1ccc(NC(=O)Nc2ccc(-c3nc(-c4cccs4)nc(N4CCOCC4)n3)cc2)cc1 [Example 563, N-[2-(dimethylamino)ethyl]-4-[({4-[4-morpholin-4-yl-6-(2-thienyl)-1,3,5-triazin-2-yl]phenyl}carbamoyl)amino]benzamide] |
| 1 | 0.6 | 1 | 7 | 16.5 |  | C[C@H]1COCCN1c1nc(-c2ccc(NC(=O)Nc3ccc(C(=O)N(C)CCN(C)C)cc3)cc2)nc(N2CCOC[C@@H]2C)n1 [Example 564, 4-{[(4-{4,6-bis[(3S)-3-methylmorpholin-4-yl]-1,3,5-triazin-2-yl}phenyl)carbamoyl]amino}-N-[2-(dimethylamino)ethyl]-N-methylbenzamide] |
| 9 | 4.1 | 1 | 27 | 38 |  | C[C@H]1COCCN1c1nc(-c2ccc(NC(=O)Nc3ccc(C(=O)N4CCN(C)CC4)cc3)cc2)nc(N2CCOC[C@@H]2C)n1 [Example 565, 1-(4-{4,6-bis[(3S)-3-methylmorpholin-4-yl]-1,3,5-triazin-2-yl}phenyl)-3-{4-[(4-methylpiperazin-1-yl)carbonyl]phenyl}urea] |
| 28 | 2.6 | 2 | 55 | 18 |  | O=C(Nc1ccncc1)Nc1ccc(-c2nc(N3CCCOCC3)nc(N3CCOCC3)n2)cc1 [Example 566, 1-{4-[4-morpholin-4-yl-6-(1,4-oxazepan-4-yl)-1,3,5-triazin-2-yl]phenyl}-3-pyridin-4-ylurea] |
|  | 14.5 | 2 | 130 | 90 | 106 | COC(=O)c1ccc(NC(=O)Nc2ccc(-c3nc(N4CCCOCC4)nc(N4CCOCC4)n3)cc2)cc1 [Example 567, methyl 4-[({4-[4-morpholin-4-yl-6-(1,4-oxazepan-4-yl)-1,3,5-triazin-2-yl]phenyl}carbamoyl)amino]benzoate] |
| 28 | 5.5 | 13 | 344 | 48 |  | CN(C)CCCNC(=O)c1ccc(NC(=O)Nc2ccc(-c3nc(-c4cccs4)nc(N4CCOCC4)n3)cc2)cc1 [Example 570, N-[3-(dimethylamino)propyl]-4-[({4-[4-morpholin-4-yl-6-(2-thienyl)-1,3,5-triazin-2-yl]phenyl}carbamoyl)amino]benzamide] |
| 6 | 1 | 6 | 25 | 12.5 |  | COCCNC(=O)c1ccc(NC(=O)Nc2ccc(-c3nc(N4CCCOCC4)nc(N4CCOCC4)n3)cc2)cc1 [Example 574, N-(2-methoxyethyl)-4-[({4-[4-morpholin-4-yl-6-(1,4-oxazepan-4-yl)-1,3,5-triazin-2-yl]phenyl}carbamoyl)amino]benzamide] |
| 15 | 3 | 15 | 242 | 19 |  | CCN1CCN(C(=O)c2ccc(NC(=O)Nc3ccc(-c4nc(-c5cccs5)nc(N5CCOCC5)n4)cc3)cc2)CC1 [Example 575, 1-{4-[(4-ethylpiperazin-1-yl)carbonyl]phenyl}-3-{4-[4-morpholin-4-yl-6-(2-thienyl)-1,3,5-triazin-2-yl]phenyl}urea] |
